Assay results: patent US11850247B2, “Antiviral compounds” (REGENTS OF THE UNIVERSITY OF MINNESOTA, priority 2020, dated 2023)

Key:
[1] = Microsomal stability assay, human liver microsomes; format: in vitro ADME; details: human liver microsomes, 1 μM compound, NADPH
Procedure: (§1) The in vitro microsomal stability assay was conducted in duplicate in mouse and human liver microsomal systems, which were supplemented with nicotinamide adenine dinucleotide phosphate (NADPH) as a cofactor. […] The reaction was initiated by addition of 1 mM NADPH, followed by incubation at 37° C. A negative control was performed in parallel in the absence of NADPH to measure any chemical instability or non-NADPH dependent enzymatic degradation for each compound. At various time points (0, 5, 15, 30, and 60 minutes), 1 volume of reaction aliquot was taken and quenched with 3 volumes of acetonitrile containing an appropriate internal standard and 0.1% formic acid. The samples were then vortexed and centrifuged at 15,000 rpm for 5 minutes at 4° C. The supernatants were collected and analyzed by LC-MS/MS to determine the in vitro metabolic half-life (t1/2).

[2] = Microsomal stability assay, mouse liver microsomes; format: in vitro ADME; details: NADPH
Procedure: as §1

HIV-1 = test: Anti-HIV-1 activity in TZM-GFP cells (viral LTR-activated GFP expression); format: cell-based; details: Human immunodeficiency virus 1, HIV-1 strain MOI=1, GFP positive cells counted after 48 hours
Procedure, shortened: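 TZM-GFP cells treated with increasing compound for 24 h, then infected with HIV-1 (MOI=1); EC50 based on inhibition of LTR-driven GFP expression versus DMSO controls. CC50 determined by XTT after 72 h continuous exposure in the same cells; duplicate, ≥2 independent experiments, variable-slope curve fit.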

[3] = molecular target: covalently-crosslinked hexameric CA A14C/E45C/W184A/M185A (CA121) (Human immunodeficiency virus type 1 group M subtype B, UniProt P12493, A146C/E177C/M317A/W316A); test: Thermal shift assay (TSA), CA hexamer stability; format: binding, HIV-1; details: compound 20 μM, ΔTm=Tm−T0 vs DMSO
TZM-GFP cells = test: Cytotoxicity in TZM-GFP cells (XTT); format: cell-based; details: 50 μM compound
Procedure, shortened: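 TZM-GFP cells (1×10^4 per well) exposed continuously to increasing compound concentrations for 72 hours. Viable cells measured by XTT; CC50 from log(inhibitor) vs. normalized response-variable slope fit, averaged over at least two independent duplicate experiments.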

[4] = pH 7.4, with Cobicistat 0.5 μM (CYP3A inhibitor), with 0.5 μM Cobicistat (CYP3A inhibitor), read-out: HLM (+Cobi) half-life (t1/2)
[5] = pH 7.4, without Cobicistat, read-out: HLM half-life (t1/2)
[6] = pH 7.4, 1 μM compound, without Cobicistat, read-out: MLM half-life (t1/2)
[7] = pH 7.4, with Cobicistat 0.5 μM (CYP3A inhibitor), 1 μM compound, with 0.5 μM Cobicistat (CYP3A inhibitor), read-out: MLM (+Cobi) half-life (t1/2)
[8] = 1 μM compound, without Cobicistat
[9] = 1 μM compound, with 0.5 μM Cobicistat (CYP3A inhibitor)

Structure (SMILES): Cc1ccc(C)c2c1NC(=O)C2CC(=O)N[C@@H](Cc1ccccc1)C(=O)N(C)c1cccc(Cl)c1 (stereo partly shown) [drawing 180]
- half-life at 1 μM [1, 4]: 107 min
- half-life at 1 μM [1, 5]: 6.7 min
- half-life at 1 μM [2, 6]: 1.4 min
- half-life at 1 μM [2, 7]: 34 min

Structure (SMILES): Cc1[nH]c2ccccc2c1CC(=O)N[C@@H](Cc1ccccc1)c1ncccc1-c1ccccc1 [Example 49, (S)-2-(2-methyl-1H-indol-3-yl)-N-(2-phenyl-1-(3-phenylpyridin-2-yl)ethyl)acetamide]
- EC50 (HIV-1): 2.6 ± 0.4 µM
- TSA ΔTm (° C.) [3]: 4.5 °C
- % viability at 50 μM (TZM-GFP cells): 29 ± 12%

Structure (SMILES): CN(C(=O)[C@H](Cc1ccccc1)NC(=O)CN1C(=O)NC2(CCCCC2)C1=O)c1ccc(F)cc1 [drawing 188]
- half-life at 1 μM [1, 5]: 1.1 min
- half-life at 1 μM [2, 6]: 0.5 min

Structure (SMILES): CN(C(=O)[C@H](Cc1ccccc1)NC(=O)CNC(=O)c1ccccc1)c1cccc(F)c1 [drawing 193]
- HLM half-life (t1/2) ([1]; without Cobicistat): 12 min
- MLM half-life (t1/2) [2, 8]: 3.6 min

Structure (SMILES): CN(C(=O)[C@H](Cc1ccccc1)NC(=O)CNC(=O)c1ccccc1)c1ccccc1 [drawing 190]
- HLM half-life (t1/2) ([1]; without Cobicistat): 15 min
- MLM half-life (t1/2) [2, 8]: 3.6 min

Structure (SMILES): CN(C(=O)[C@H](Cc1ccccc1)NC(=O)Cc1cccc2ccccc12)c1ccc(Cl)cc1 [drawing 184]
- half-life at 1 μM [1, 4]: 102 min
- half-life at 1 μM [1, 5]: 1.1 min
- half-life at 1 μM [2, 6]: 0.6 min
- half-life at 1 μM [2, 7]: 7.4 min

Structure (SMILES): CN(C(=O)[C@H](Cc1ccccc1)NC(=O)Cc1ccc2ccccc2c1)c1ccccc1 [drawing 181]
- half-life at 1 μM [1, 5]: 1.8 min
- half-life at 1 μM [2, 6]: 0.5 min

Structure (SMILES): CN(C(=O)[C@H](Cc1ccccc1)NC(=O)CNC(=O)c1ccccc1)c1ccc(Cl)cc1 [drawing 192]
- HLM half-life (t1/2) ([1]; without Cobicistat): 36 min
- half-life at 1 μM [1, 4]: 141 min
- MLM (+Cobi) half-life (t1/2) [2, 9]: 52 min
- MLM half-life (t1/2) [2, 8]: 13 min

Structure (SMILES): Cc1[nH]c2ccccc2c1CC(=O)N[C@@H](Cc1ccccc1)c1nccn1-c1ccc(C#N)cc1 [Example 53, (S)—N-(1-(1-(4-cyanophenyl)-1H-imidazol-2-yl)-2-phenylethyl)-2-(2-methyl-1H-indol-3-yl)acetamide]
- EC50 (HIV-1): 6.6 ± 0.4 µM
- TSA ΔTm (° C.) [3]: 2.2 °C
- % viability at 50 μM (TZM-GFP cells): 87 ± 8%

Structure (SMILES): CN(C(=O)[C@H](Cc1ccccc1)NC(=O)Cc1cccc2ccccc12)c1ccccc1 [drawing 183]
- half-life at 1 μM [1, 5]: 0.6 min
- half-life at 1 μM [2, 6]: 0.5 min

Structure (SMILES): Cc1ccc(C)c2c1NC(=O)C2CC(=O)N[C@@H](Cc1ccccc1)C(=O)N(C)c1ccccc1 (stereo partly shown) [drawing 179]
- half-life at 1 μM [1, 5]: 1.5 min
- half-life at 1 μM [2, 6]: 0.6 min

Structure (SMILES): COc1ccc(N(C)C(=O)[C@H](Cc2ccccc2)NC(=O)CN2C(=O)NC3(CCCCC3)C2=O)cc1 [drawing 186]
- half-life at 1 μM [1, 5]: 5.2 min
- half-life at 1 μM [2, 6]: 0.7 min

Structure (SMILES): CCN(C(=O)[C@H](Cc1ccccc1)NC(=O)CNC(=O)c1ccccc1)c1ccccc1 [drawing 194]
- HLM half-life (t1/2) ([1]; without Cobicistat): 14 min
- half-life at 1 μM [1, 4]: 231 min
- MLM (+Cobi) half-life (t1/2) [2, 9]: 28 min
- MLM half-life (t1/2) [2, 8]: 2.4 min

Structure (SMILES): Cc1[nH]c2ccccc2c1CC(=O)N[C@@H](Cc1ccccc1)c1nccn1-c1ccccc1 [Example 52, (S)-2-(2-methyl-1H-indol-3-yl)-N-(2-phenyl-1-(1-phenyl-1H-imidazol-2-yl)ethyl)acetamide]
- EC50 (HIV-1): 3.7 ± 0.8 µM
- TSA ΔTm (° C.) [3]: 3.9 °C
- % viability at 50 μM (TZM-GFP cells): 78 ± 6%

Structure (SMILES): CN(C(=O)[C@H](Cc1ccccc1)NC(=O)CN1C(=O)NC2(CCCCC2)C1=O)c1ccc(Cl)cc1 [drawing 189]
- half-life at 1 μM [1, 5]: 3.1 min
- half-life at 1 μM [2, 6]: 0.9 min

Structure (SMILES): Cc1cccc2c1NC(=O)C2CC(=O)N[C@@H](Cc1ccccc1)C(=O)N(C)c1cccc(F)c1 (stereo partly shown) [drawing 178]
- half-life at 1 μM [1, 4]: 433 min
- half-life at 1 μM [1, 5]: 2.5 min
- half-life at 1 μM [2, 6]: 1.1 min
- half-life at 1 μM [2, 7]: 20 min

Structure (SMILES): Cc1ccc(N(C)C(=O)[C@H](Cc2ccccc2)NC(=O)CN2C(=O)NC3(CCCCC3)C2=O)cc1 [drawing 187]
- half-life at 1 μM [1, 5]: 3.3 min
- half-life at 1 μM [2, 6]: 1.2 min

Structure (SMILES): Cc1cn(CC(=O)N[C@@H](Cc2ccccc2)C(=O)N(C)c2ccc(Cl)cc2)c(=O)[nH]c1=O [drawing 195]
- HLM half-life (t1/2) ([1]; without Cobicistat): 12 min
- half-life at 1 μM [1, 4]: 1390 min
- MLM half-life (t1/2) [2, 8]: 4.6 min
- half-life at 1 μM [2, 7]: 385 min

Structure (SMILES): CN(C(=O)[C@H](Cc1ccccc1)NC(=O)Cc1ccc2ccccc2c1)c1ccc(Cl)cc1 [drawing 182]
- half-life at 1 μM [1, 4]: 239 min
- half-life at 1 μM [1, 5]: 2.7 min
- half-life at 1 μM [2, 6]: 1.4 min
- half-life at 1 μM [2, 7]: 18 min

Structure (SMILES): Cc1ccc(N(C)C(=O)[C@H](Cc2ccccc2)NC(=O)CNC(=O)c2ccccc2)cc1 [drawing 191]
- HLM (+Cobi) half-life (t1/2) ([1]; with 0.5 μM Cobicistat (CYP3A inhibitor)): 42 min
- HLM half-life (t1/2) ([1]; without Cobicistat): 22 min
- MLM (+Cobi) half-life (t1/2) [2, 9]: 34 min
- MLM half-life (t1/2) [2, 8]: 5.0 min

Structure (SMILES): O=C(Cn1ncc2ccccc21)N[C@@H](Cc1ccccc1)c1ncccc1-c1ccccc1 [Example 50, (S)-2-(1H-indazol-1-yl)-N-(2-phenyl-1-(3-phenylpyridin-2-yl)ethyl)acetamide]
- EC50 (HIV-1): 8.8 ± 0.4 µM
- TSA ΔTm (° C.) [3]: 1.0 °C
- % viability at 50 μM (TZM-GFP cells): 46 ± 13%

Structure (SMILES): Cc1cccc2c1NC(=O)C2CC(=O)N[C@@H](Cc1ccccc1)C(=O)N(C)c1ccccc1 (stereo partly shown) [drawing 177]
- half-life at 1 μM [1, 5]: 7 min
- half-life at 1 μM [2, 6]: 1 min

Structure (SMILES): Cc1[nH]c2ccccc2c1CC(=O)N[C@@H](Cc1ccccc1)C(=O)N(C)c1ccccc1 [PF-74, reference compound]
- HLM half-life (t1/2) ([1]; without Cobicistat): less than 1 min
- MLM half-life (t1/2) [2, 8]: 0.6 min
- MLM half-life (t1/2) ([2]; 1 μM compound, without Cobicistat, listed as PF74): less than 1 min

Structure (SMILES): O=C(Cn1cccn1)N[C@@H](Cc1ccccc1)c1ncccc1-c1ccccc1 [Example 51, (S)—N-(2-phenyl-1-(3-phenylpyridin-2-yl)ethyl)-2-(1H-pyrazol-1-yl)acetamide]
- EC50 (HIV-1): 5.1 ± 0.7 µM
- TSA ΔTm (° C.) [3]: 1.1 °C
- % viability at 50 μM (TZM-GFP cells): 102 ± 6%
